Measurements: PubChem BioAssay (NCI)
Several values for one entry are separate records, joined by “and”; a condition that tells them apart may be missing. Identical values can stand only once.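 96-well plates; 48 h exposure; 5 concentrations. Endpoints by linear interpolation between flanking doses. Not reached: highest tested concentration assigned. GI50: concentration for 50% inhibition of growth. TGI: concentration producing complete growth inhibition.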

Experiments:
Assay in all cases: DTP human tumour cell line panel, 48 h
[1] = system: CAKI-1 renal
[2] = system: DU-145 prostate
[3] = system: HCC-2998 colon
[4] = system: MDA-MB-231 breast
[5] = system: NCI-H460 lung
[6] = system: SK-OV-3 ovarian
[7] = system: SN12C renal
[8] = system: SNB-19 CNS
[9] = system: SNB-75 CNS
[10] = system: U251 CNS

| Structure (SMILES) | GI50 [1] [nM] | TGI [1] [µM] | GI50 [2] [nM] | TGI [2] | GI50 [3] [nM] | TGI [3] | GI50 [4] [nM] | TGI [4] [µM] | GI50 [5] [nM] | TGI [5] | GI50 [6] [nM] | TGI [6] [µM] | GI50 [7] [nM] | TGI [7] [µM] | GI50 [8] [µM] | TGI [8] [µM] | GI50 [9] [nM] | TGI [9] [µM] | GI50 [10] [nM] | TGI [10] [µM] |
| --- | --- | --- | --- | --- | --- | --- | --- | --- | --- | --- | --- | --- | --- | --- | --- | --- | --- | --- | --- | --- |
| CCOC(=O)CNC(=O)CCCn1c(=O)c2c3ccccc3n(C)c2n2nnc(-c3ccccc3)c12 | 8370 | 20 | 32000 | > 50 µM | > 50000 | > 50 µM | 14700 | 31 | > 50000 | > 50 µM | 6700 | 44 | > 50000 | > 50 | 5.83 | 22.7 | 1120 | 3.59 | 4140 | 14.6 |
| COc1cccc2c1cc([N+](=O)[O-])c1c(C(=O)O)cc3c(c12)OCO3 | 17800 | > 100 | 23000 | > 82.1 µM and 98.7 µM | 3910 | 18.9 µM and 9.62 µM | 59900 | > 100 | 18200 | 63.7 µM and > 100 µM | 38400 | > 100 | 48700 | > 100 | 33.4 | > 100 | 36000 | > 100 | 22900 | > 100 |
| Oc1ccc(Br)cc1/C=N/NC(=S)NC12CC3CC(CC(C3)C1)C2 | 2670 | 8.59 | 2250 | 6.73 µM | 1950 | 4.6 µM | 1950 | 5.54 | 645 | 2.17 µM | 3540 | 11.9 | 1630 | 3.18 | 2.87 | 12.4 | 2030 | 7.15 | 1320 | 2.71 |
| COc1cc(/C=C2\CC3C4CC=C5C[C@@H](N6CCCC6)CC[C@]5(C)C4CC[C@]3(C)[C@H]2OC(C)=O)ccc1OCCN1CCCCC1 (stereo not given in full) | 1950 | 3.95 | 1570 | 3.67 µM | 397 | 0.85 µM | 2270 | 4.1 | 3180 | > 100 µM | 2150 | 4.39 | 775 | 2.56 | 2.84 | 5.83 | 2560 | 5.03 | 1550 | 3.02 |
| Cc1[nH]nc2c1N=C(c1ccccc1F)c1cc(C#N)ccc1N2 | 51 | 5.66 | 3000 | 12.8 µM | 3580 | 15.9 µM | 2590 | 11.7 | 106 | 15.6 µM | 889 | > 17 | 3870 | 15.1 | 4.16 | 13.9 | 36 | 0.717 | 215 | 4.64 |
| O=C(O)C(Br)C(Br)c1ccccc1[N+](=O)[O-] (stereo not given) |  | > 100 |  | > 100 µM |  | > 100 µM |  | > 100 |  | > 100 µM |  | > 100 |  | > 100 |  | > 100 |  | > 100 |  | > 100 |
| C=CC[Se]C(=O)Cc1c(C)n(C(=O)c2ccc(Cl)cc2)c2ccc(OC)cc12 | 1660 | 3.05 | 1900 | 3.75 µM | 1640 | 3.2 µM | 1660 | 3.21 | 491 | 3.19 µM | 1630 | 3.1 | 1680 | 3.05 | 0.657 | 1.99 | 1480 | 2.81 | 1100 | 2.73 |
| O=C(Nc1cccc(C(F)(F)F)c1)c1cccc(NC2=C(Cl)C(=O)N(Cc3ccccc3)C2=O)c1 | 6500 | > 100 | 37200 | > 100 µM | 16800 | 32.7 µM | 5380 | > 100 | 8760 | > 100 µM | 79100 | > 100 | 14900 | > 100 | 36.8 | > 100 | 57300 | > 100 | 6170 | > 100 |
| CCCCCCNC(=O)Oc1ccc(/C(=C(\C)c2ccccc2)c2ccc(OCCN3CCCCC3)cc2)cc1 | 2200 | 5.11 | 3690 | 15.3 µM | 2960 | 8.92 µM | 2090 | 4.96 | 2050 | 4.35 µM | 5050 | 19.3 | 1700 | 3.4 | 4.69 | 18.2 | 2010 | 10.1 | 1810 | 3.81 |
| CCCC(=O)NC(c1ccc2c(c1)OCO2)c1ccc2cccnc2c1O (stereo not given) | 669 | > 100 | 2000 | > 100 µM | 2210 | > 100 µM | 1640 | > 100 | 527 | 10.6 µM | 1890 | 29.7 | 2280 | > 100 | 2.28 | > 100 | 2180 | 73 | 1150 | > 100 |
| Oc1ccc(/C=N/Nc2nc3ccccc3s2)c(O)c1 | 1070 | 15.7 | 1860 | 17.6 µM | 3760 | 19.4 µM | 1690 | 12.9 | 1780 | 5.21 µM | 2140 | 8.93 | 2090 | 57.9 | 2.8 | > 100 | 1510 | 9.96 | 1720 | > 100 |
| O=C1NC(=O)C2(CCC(O)C2)c2cc[n+]([O-])cc21 (stereo not given) |  | > 100 |  | > 100 µM |  | > 100 µM |  | > 100 |  | > 100 µM |  | > 100 |  | > 100 |  | > 100 |  | > 100 |  | > 100 |
